Assay results taken from patent US20240358692A1, “TREATMENT OF SCLERODERMA” (Aisa Pharma, Inc., priority 2023, published 2024).

Test system: participants with SSc-RP
Test: SHAQ - Standard Disability Index
Assay type: in vivo, human
Set-up: key to SHAQ Standard Disability Index, In-Clinic Visit (Day 12), Mean / SHAQ Standard Disability Index, In-Clinic Visit (Day 12), Median / SHAQ Standard Disability Index, Day 12, Mean / SHAQ Standard Disability Index, Day 12, Median: 0 = without any difficulty to 3 = unable to do
Conditions: for % change in Standard Disability Index: SHAQ, mITT Part A
Description: The standard, validated, patient reported outcome measures tool for SSc patients, the Scleroderma Health Assessment Questionnaire (SHAQ), will be used to assess the participant qualify of life. Details are attached in the Appendix. The participant quality of life will be scored, and a disability index calculated for each questionnaire completed by the patient at Screening and each in-clinic visit. The absolute change in participant quality of life from baseline to the end of each dosing period will be calculated similar to frequency data as before.
The SHAQ is used to calculate a Disability Index to assess the participant qualify of life. The eight categories assessed by the Disability Index are 1) dressing and grooming, 2) arising, 3) eating, 4) walking, 5) hygiene, 6) reach, 7) grip, and 8) common daily activities. For each of these categories, patients report the amount of difficulty they have in performing two or three specific activities.
There are four possible responses for the Disability Index questions: • Without any difficulty=0 • With some difficulty=1 • With much difficulty=2 • Unable to do=3 • The highest score reported by the patient for any component question of the eight categories determines the score for that category. • If a component question is left blank or the response is too ambiguous to assign a score, then the score for that category is determined by the remaining completed question(s). • If all component questions are blank or if more than one answer is given, then follow up with the respondent is required. • If the respondent's mark is between the response columns, then move it to the closest one. If it's directly between the two, move it to the higher one.
This question results in a new set of category scores that are computed by adjusting the score for each category, if necessary, based on the patient's use of an aid or device or assistance for that category. If either devices and/or help from another person are checked for a category, the score is set to “2”, unless the score is already “3” (i.e., scores of “0” or “1” are increased to “2”). For example, if the highest score for the dressing category is “1”, and the patient says they use a device for dressing, the computed category score would be “2”. The sum of the computed categories scores is then calculated and divided by the number of categories answered. This gives a score in the 0 to 3 range.

[1] = Any Cilnidipine (N = 17), Day 12, PP Population, Part A
[2] = Cilnidipine 10 mg, SSc patients, PP, Part A
[3] = Cilnidipine 20 mg (N = 3), Day 12, Patients with Diagnosis of SSc, Modified ITT Population - Part A
[4] = Cilnidipine 20 mg, SSc patients, PP, Part A
[5] = Pooled Cilnidipine 20 mg and Cilnidipine 20 mg + Tadalafil 5 mg (N = 8), Day 12, PP Population, Part A
[6] = Pooled Cilnidipine (N = 8), Day 12, PP Population, Part A
[7] = pooled Cilnidipine 10 mg and Cilnidipine 10 mg + Tadalafil 5 mg
[8] = pooled Cilnidipine 20 mg and Cilnidipine 20 mg + Tadalafil 5 mg
[9] = pooled cilnidipine 10 mg and 20 mg arms (combination: + tadalafil 5 mg)
[10] = Tadalafil 5 mg, Day 12, PP Population Part A, sensitivity analysis
[11] = Tadalafil 5 mg, SSc patients, PP, Part A

SMILES: COCCOC(=O)C1=C(C)NC(C)=C(C(=O)OC/C=C/c2ccccc2)C1c1cccc([N+](=O)[O-])c1 (stereo not shown) [Cilnidipine]
- SHAQ Standard Disability Index, Change from Baseline, Mean (SD) [1]: −0.041 (0.1990)
- SHAQ Standard Disability Index, Change from Baseline, Median [1]: 0.000
- SHAQ Standard Disability Index, Percent Change from Baseline, Median [1]: 0.00%
- SHAQ Standard Disability Index, In-Clinic Visit (Day 12), Median (Cilnidipine 10 mg (N = 3), Patients with Diagnosis of SSc, Modified ITT Population - Part A): 1.125
- SHAQ Standard Disability Index, Change from Baseline, Max [2]: 0.00
- SHAQ Standard Disability Index, Change from Baseline, Min [2]: 0.00,
- SHAQ Standard Disability Index, Change from Baseline, Q1 [2]: 0.000,
- SHAQ Standard Disability Index, Change from Baseline, Q3 [2]: 0.000
- SHAQ Standard Disability Index, Day 12, Max [2]: 1.50
- SHAQ Standard Disability Index, Day 12, Mean [2]: 0.656
- SHAQ Standard Disability Index, Day 12, Median [2]: 0.563
- SHAQ Standard Disability Index, Day 12, Min [2]: 0.00,
- SHAQ Standard Disability Index, Day 12, Q1 [2]: 0.000,
- SHAQ Standard Disability Index, Day 12, Q3 [2]: 1.313
- SHAQ Standard Disability Index, Percent Change from Baseline, Max [2]: 0.0
- SHAQ Standard Disability Index, Percent Change from Baseline, Min [2]: 0.0,
- SHAQ Standard Disability Index, Percent Change from Baseline, Q1 [2]: 0.00,
- SHAQ Standard Disability Index, Percent Change from Baseline, Q3 [2]: 0.00
- SHAQ Standard Disability Index, Change from Baseline, Mean [3]: −0.125
- SHAQ Standard Disability Index, Change from Baseline, Median [3]: −0.125
- SHAQ Standard Disability Index, Percent Change from Baseline, Mean [3]: −50.00%
- SHAQ Standard Disability Index, Percent Change from Baseline, Median [3]: −50.00%
- SHAQ Standard Disability Index, In-Clinic Visit (Day 12), Mean (Cilnidipine 20 mg (N = 3), Patients with Diagnosis of SSc, Modified ITT Population - Part A): 0.125
- % change in Standard Disability Index (Cilnidipine 20 mg (n = 3)): −50%
- SHAQ Standard Disability Index, Change from Baseline, Max [4]: 0.13
- SHAQ Standard Disability Index, Change from Baseline, Mean [4]: −0.063
- SHAQ Standard Disability Index, Change from Baseline, Median [4]: −0.063
- SHAQ Standard Disability Index, Change from Baseline, Min [4]: −0.25,
- SHAQ Standard Disability Index, Change from Baseline, Q1 [4]: −0.188,
- SHAQ Standard Disability Index, Change from Baseline, Q3 [4]: 0.063
- SHAQ Standard Disability Index, Day 12, Max [4]: 0.75
- SHAQ Standard Disability Index, Day 12, Mean [4]: 0.281
- SHAQ Standard Disability Index, Day 12, Median [4]: 0.188
- SHAQ Standard Disability Index, Day 12, Min [4]: 0.00,
- SHAQ Standard Disability Index, Day 12, Q1 [4]: 0.063,
- SHAQ Standard Disability Index, Day 12, Q3 [4]: 0.500
- SHAQ Standard Disability Index, Percent Change from Baseline, Max [4]: 20.0
- SHAQ Standard Disability Index, Percent Change from Baseline, Mean [4]: −26.67
- SHAQ Standard Disability Index, Percent Change from Baseline, Min [4]: −66.7,
- SHAQ Standard Disability Index, Percent Change from Baseline, Q1 [4]: −66.67,
- SHAQ Standard Disability Index, Percent Change from Baseline, Q3 [4]: 20.00
- SHAQ Standard Disability Index, Change from Baseline, Mean [5]: −0.065
- SHAQ Standard Disability Index, Change from Baseline, Median [5]: 0.000
- SHAQ Standard Disability Index, Change from Baseline, Mean (SD) [6]: −0.031 (0.1108)
- SHAQ Standard Disability Index, In-Clinic Visit (Day 12), Mean (SD) [6]: 0.469 (0.5853)
- SHAQ Standard Disability Index, Percent Change from Baseline, Mean (SD) [6]: −16.00 (34.189) %
- % change in Standard Disability Index (Pooled Cilnidipine (n = 7)): −25%
- % Δ from baseline, standard disability mean (Pooled cilnidipine (n=4)): −25%
- Standard Disability Index Change from Baseline Max [7]: 0.38
- Standard Disability Index Change from Baseline Mean [7]: −0.021
- Standard Disability Index Change from Baseline Median [7]: 0.000
- Standard Disability Index Change from Baseline Min [7]: −0.31,
- Standard Disability Index Change from Baseline Q3 [7]: 0.000
- Standard Disability Index Day 12 Max [7]: 1.50
- Standard Disability Index Day 12 Min [7]: 0.00,
- Standard Disability Index Day 12 Q1 [7]: 0.188,
- Standard Disability Index Day 12 Q3 [7]: 1.125
- Standard Disability Index Percent Change from Baseline Max [7]: 150.0%
- Standard Disability Index Percent Change from Baseline Mean [7]: 7.50%
- Standard Disability Index Percent Change from Baseline Median [7]: 0.00%
- Standard Disability Index Percent Change from Baseline Min [7]: −62.5, %
- Standard Disability Index Percent Change from Baseline Q1 [7]: −25.00, %
- Standard Disability Index Percent Change from Baseline Q3 [7]: 0.00%
- Standard Disability Index Change from Baseline Max [8]: 0.13
- Standard Disability Index Change from Baseline Mean [8]: −0.092
- Standard Disability Index Change from Baseline Median [8]: 0.000
- Standard Disability Index Change from Baseline Min [8]: −0.52,
- Standard Disability Index Change from Baseline Q1 [8]: −0.250,
- Standard Disability Index Day 12 Max [8]: 1.75
- Standard Disability Index Day 12 Median [8]: 0.250
- Standard Disability Index Day 12 Min [8]: 0.00,
- Standard Disability Index Day 12 Q1 [8]: 0.000,
- Standard Disability Index Day 12 Q3 [8]: 0.857
- Standard Disability Index Percent Change from Baseline Max [8]: 100.0%
- Standard Disability Index Percent Change from Baseline Median [8]: −33.33%
- Standard Disability Index Percent Change from Baseline Min [8]: −66.7, %
- Standard Disability Index Percent Change from Baseline Q1 [8]: −37.66, %
- Standard Disability Index Percent Change from Baseline Q3 [8]: 7.69%
- Standard Disability Index Change from Baseline Max [9]: 0.00
- Standard Disability Index Change from Baseline Mean [9]: −0.054
- Standard Disability Index Change from Baseline Median [9]: 0.000
- Standard Disability Index Change from Baseline Min [9]: −0.25,
- Standard Disability Index Change from Baseline Q3 [9]: 0.000
- Standard Disability Index Day 12 Max [9]: 1.50
- Standard Disability Index Day 12 Median [9]: 0.125
- Standard Disability Index Day 12 Min [9]: 0.00,
- Standard Disability Index Day 12 Q1 [9]: 0.000,
- Standard Disability Index Percent Change from Baseline Max [9]: 0.0%
- Standard Disability Index Percent Change from Baseline Mean [9]: −25.00%
- Standard Disability Index Percent Change from Baseline Min [9]: −66.7, %
- Standard Disability Index Percent Change from Baseline Q1 [9]: −50.00, %
- Standard Disability Index Percent Change from Baseline Q3 [9]: 0.00%

SMILES: CN1CC(=O)N2[C@H](c3ccc4c(c3)OCO4)c3[nH]c4ccccc4c3C[C@@H]2C1=O [Tadalafil]
- SHAQ Standard Disability Index, In-Clinic Visit (Day 12), Mean [10]: 0.531
- SHAQ Standard Disability Index, In-Clinic Visit (Day 12), Median [10]: 0.563
- SHAQ Standard Disability Index, Change from Baseline, Max [11]: 0.00
- SHAQ Standard Disability Index, Change from Baseline, Min [11]: −0.13,
- SHAQ Standard Disability Index, Change from Baseline, Q1 [11]: −0.125,
- SHAQ Standard Disability Index, Change from Baseline, Q3 [11]: 0.000
- SHAQ Standard Disability Index, Day 12, Max [11]: 1.00
- SHAQ Standard Disability Index, Day 12, Min [11]: 0.00,
- SHAQ Standard Disability Index, Day 12, Q1 [11]: 0.250,
- SHAQ Standard Disability Index, Day 12, Q3 [11]: 0.813
- SHAQ Standard Disability Index, Percent Change from Baseline, Max [11]: 0.0
- SHAQ Standard Disability Index, Percent Change from Baseline, Min [11]: −16.7,
- SHAQ Standard Disability Index, Percent Change from Baseline, Q1 [11]: −16.67,
- SHAQ Standard Disability Index, Percent Change from Baseline, Q3 [11]: 0.00
